Experimental data: PubChem BioAssay AID248 (DTP/NCI, 2004)
Several values for one entry are separate records, joined by “and”; a condition that tells them apart may be missing. Identical values can stand only once. Inconclusive results and toxic doses are left out. Cut-off read from the data, not from the text of the source: active = T/C of 150% or more; inactive = T/C below 125%.

Tested on: L1210 leukemia ip in BDF1 mice, survival T/C
Test: NCI In Vivo Anticancer Drug Screen. Data for tumor model L1210 Leukemia (intraperitoneal) in B6D2F1 (BDF1) mice
Settings: endpoint: mean survival time, higher = longer survival
Summary of the method: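 Transplantable tumor model; survival measured in treated vs vehicle control mice. Value = treated/control.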

[1] = dose: 100.0 mg/kg/injection, schedule: Q04DX003 (ip), vehicle: saline with Tween-80
[2] = dose: 200.0 mg/kg/injection, schedule: Q04DX003 (ip), vehicle: saline with Tween-80
[3] = dose: 400.0 mg/kg/injection, schedule: Q04DX003 (ip), vehicle: saline with Tween-80
[4] = dose: 100.0 mg/kg/injection, schedule: Q04DX003 (ip), vehicle: Klucel (hydroxypropylcellulose) (HPC)
[5] = dose: 200.0 mg/kg/injection, schedule: Q01DX009 (ip), vehicle: saline with Tween-80
[6] = dose: 400.0 mg/kg/injection, schedule: Q01DX009 (ip), vehicle: saline with Tween-80
[7] = dose: 100.0 mg/kg/injection, schedule: Q04DX003 (ip), vehicle: saline
[8] = dose: 200.0 mg/kg/injection, schedule: Q04DX003 (ip), vehicle: saline
[9] = dose: 400.0 mg/kg/injection, schedule: Q04DX003 (ip), vehicle: saline
[10] = dose: 100.0 mg/kg/injection, schedule: Q01DX009 (ip), vehicle: saline with Tween-80
[11] = dose: 100.0 mg/kg/injection, schedule: Q04DX002 (ip), vehicle: Klucel (hydroxypropylcellulose) (HPC)
[12] = dose: 200.0 mg/kg/injection, schedule: Q04DX002 (ip), vehicle: Klucel (hydroxypropylcellulose) (HPC)
[13] = dose: 400.0 mg/kg/injection, schedule: Q04DX002 (ip), vehicle: Klucel (hydroxypropylcellulose) (HPC)

Measured: T/C

CC1(C)OB(C(B2OC(C)(C)C(C)(C)O2)=C(CCl)CCl)OC1(C)C
inactive: dose: 100.0 mg/kg/injection, schedule: Q01DX001 (ip), vehicle: Klucel (hydroxypropylcellulose) (HPC) 101 % of control | dose: 200.0 mg/kg/injection, schedule: Q01DX001 (ip), vehicle: Klucel (hydroxypropylcellulose) (HPC) 88 % of control | dose: 400.0 mg/kg/injection, schedule: Q01DX001 (ip), vehicle: Klucel (hydroxypropylcellulose) (HPC) 103 % of control

COC(=O)c1ccccc1N=NNc1ccc(C(F)(F)F)c([N+](=O)[O-])c1
inactive: [1] 98 % of control | [2] 103 % of control | [3] 88 % of control

CCOC(=O)C1=CC=CC1=O
inactive: [1] 102 % of control | [2] 95 % of control | [3] 91 % of control

Cc1ccc(S(=O)(=O)C2=C(c3ccccc3)c3ccccc3CC2)cc1
inactive: dose: 100.0 mg/kg/injection, schedule: Q01DX001 (ip), vehicle: saline 101 % of control | dose: 100.0 mg/kg/injection, schedule: Q01DX009 (ip), vehicle: saline 93 % of control | dose: 100.0 mg/kg/injection, schedule: Q04DX003 (ip), vehicle: acetone 100 % of control | dose: 200.0 mg/kg/injection, schedule: Q01DX001 (ip), vehicle: saline 93 % of control | dose: 200.0 mg/kg/injection, schedule: Q01DX009 (ip), vehicle: saline 91 % of control | dose: 200.0 mg/kg/injection, schedule: Q04DX003 (ip), vehicle: acetone 102 % of control | dose: 400.0 mg/kg/injection, schedule: Q01DX001 (ip), vehicle: saline 95 % of control | dose: 400.0 mg/kg/injection, schedule: Q01DX009 (ip), vehicle: saline 93 % of control | dose: 400.0 mg/kg/injection, schedule: Q04DX003 (ip), vehicle: acetone 105 % of control

CCC(CC)=NNC(N)=O
inactive: dose: 25.0 mg/kg/injection, schedule: Q04DX003 (ip), vehicle: Klucel (hydroxypropylcellulose) (HPC) 104 % of control | dose: 50.0 mg/kg/injection, schedule: Q04DX003 (ip), vehicle: Klucel (hydroxypropylcellulose) (HPC) 100 % of control | [4] 103 % of control and 104 % of control

Cc1cc(OC(=O)Nc2c(C)cccc2C)cc(C)c1Cl
inactive: dose: 25.0 mg/kg/injection, schedule: Q01DX001 (ip), vehicle: saline with Tween-80 93 % of control | dose: 25.0 mg/kg/injection, schedule: Q01DX009 (ip), vehicle: saline with Tween-80 111 % of control and 89 % of control | dose: 25.0 mg/kg/injection, schedule: Q04DX003 (ip), vehicle: saline with Tween-80 107 % of control | dose: 50.0 mg/kg/injection, schedule: Q01DX001 (ip), vehicle: saline with Tween-80 88 % of control | dose: 50.0 mg/kg/injection, schedule: Q01DX009 (ip), vehicle: saline with Tween-80 100 % of control and 114 % of control | dose: 50.0 mg/kg/injection, schedule: Q04DX002 (ip), vehicle: saline with Tween-80 94 % of control and 102 % of control | dose: 50.0 mg/kg/injection, schedule: Q04DX003 (ip), vehicle: saline with Tween-80 93 % of control | [1] 91 % of control | [5] 93 % of control | [2] 92 % of control | [6] 93 % of control | [3] 103 % of control

CN(C)C(=O)/C=C/C(=O)N(C)C
inactive: [7] 103 % of control | [8] 103 % of control | [9] 108 % of control

O=C1/C(=C2\CCc3ccccc32)Cc2ccccc21
inactive: dose: 12.5 mg/kg/injection, schedule: Q04DX002 (ip), vehicle: saline 99 % of control | dose: 25.0 mg/kg/injection, schedule: Q04DX002 (ip), vehicle: saline 96 % of control | dose: 50.0 mg/kg/injection, schedule: Q04DX002 (ip), vehicle: saline 96 % of control

Cc1nc(C[N+](C)(C)C)c2cnccn12
inactive: [7] 102 % of control

CC(=O)Oc1ccc(/C=C/c2ccncc2)cc1
inactive: dose: 100.0 mg/kg/injection, schedule: Q01DX009 (ip), vehicle: Klucel (hydroxypropylcellulose) (HPC) 97 % of control | dose: 200.0 mg/kg/injection, schedule: Q01DX009 (ip), vehicle: Klucel (hydroxypropylcellulose) (HPC) 100 % of control | dose: 400.0 mg/kg/injection, schedule: Q01DX009 (ip), vehicle: Klucel (hydroxypropylcellulose) (HPC) 104 % of control

COc1cc(-c2ccc(NC(=O)CC(C)=O)c(OC)c2)ccc1NC(=O)CC(C)=O
inactive: [10] 94 % of control | [1] 92 % of control | [5] 101 % of control | [2] 91 % of control | [6] 99 % of control | [3] 89 % of control

CCOC(=O)c1nc2c(OC)nn(O)cc-2c1[N+](=O)[O-]
inactive: dose: 12.5 mg/kg/injection, schedule: Q04DX002 (ip), vehicle: saline with Tween-80 92 % of control | dose: 25.0 mg/kg/injection, schedule: Q04DX002 (ip), vehicle: saline with Tween-80 99 % of control

O=C(C#Cc1ccccc1)/C=C/c1ccccc1
inactive: [4] 88 % of control | dose: 200.0 mg/kg/injection, schedule: Q04DX003 (ip), vehicle: Klucel (hydroxypropylcellulose) (HPC) 98 % of control

O=c1ccn(-c2ccccc2)c(=S)[nH]1
inactive: dose: 100.0 mg/kg/injection, schedule: Q01DX001 (ip), vehicle: saline with Tween-80 96 % of control | [10] 95 % of control | dose: 200.0 mg/kg/injection, schedule: Q01DX001 (ip), vehicle: saline with Tween-80 96 % of control | [5] 95 % of control | dose: 400.0 mg/kg/injection, schedule: Q01DX001 (ip), vehicle: saline with Tween-80 100 % of control

NOCc1nnc(Nc2ccccc2)s1
inactive: [10] 92 % of control | [5] 90 % of control

O=C(COc1ccc(Cl)cc1)Oc1c(Cl)c(Cl)c(Cl)c(Cl)c1Cl
inactive: [11] 97 % of control | [12] 115 % of control | [13] 104 % of control

CCN(CC)C(=O)CSC#N
inactive: dose: 6.25 mg/kg/injection, schedule: Q04DX002 (ip), vehicle: other 88 % of control | dose: 12.5 mg/kg/injection, schedule: Q04DX002 (ip), vehicle: other 103 % of control

CC(C)(C)c1cc(/C=N/NC(=S)Nc2ccccc2)cc(C(C)(C)C)c1O
inactive: [11] 96 % of control | [12] 89 % of control | [13] 92 % of control

Oc1ccccc1C=NCCCN=Cc1ccccc1O
inactive: dose: 100.0 mg/kg/injection, schedule: Q01DX009 (ip), vehicle: gum acacia 104 % of control | dose: 100.0 mg/kg/injection, schedule: Q04DX003 (ip), vehicle: gum acacia 98 % of control | dose: 200.0 mg/kg/injection, schedule: Q01DX009 (ip), vehicle: gum acacia 101 % of control | dose: 200.0 mg/kg/injection, schedule: Q04DX003 (ip), vehicle: gum acacia 95 % of control | dose: 400.0 mg/kg/injection, schedule: Q01DX009 (ip), vehicle: gum acacia 101 % of control | dose: 400.0 mg/kg/injection, schedule: Q04DX003 (ip), vehicle: gum acacia 98 % of control

O=C1[O][Hg][c]2cccc3cccc1c23
inactive: dose: 5.0 mg/kg/injection, schedule: Q04DX003 (ip), vehicle: saline with Tween-80 101 % of control | dose: 10.0 mg/kg/injection, schedule: Q04DX003 (ip), vehicle: saline with Tween-80 95 % of control

CCCCNC(=O)C1C2CC3OC(=O)C1C3C2 (configuration not stated)
inactive: dose: 12.5 mg/kg/injection, schedule: Q04DX003 (ip), vehicle: saline 89 % of control | dose: 25.0 mg/kg/injection, schedule: Q04DX003 (ip), vehicle: saline 95 % of control | dose: 50.0 mg/kg/injection, schedule: Q04DX003 (ip), vehicle: saline 100 % of control | [7] 95 % of control | [8] 98 % of control | [9] 101 % of control
